Source: patent US7569695B2, “Dyes for the detection or quantification of desirable target molecules” (Enzo Life Sciences, Inc., priority 2005, dated 2009)

Assays:
BSA = BSA (Bos taurus, UniProt P02769); assay: Fluorescence enhancement of dyes upon binding to a protein (BSA); conditions: ratio of fluorescence (emission maxima) with BSA vs without, 1 μM dye, 150 μg BSA; for Fluorescence Enhancement with SDS: 10 mM TRIS pH 7.5, 0.05% SDS; for Fluorescence Enhancement without SDS: 10 mM TRIS pH 7.5, no SDS
Protocol: Some of the dyes of the preceding examples were tested for changes in fluorescence upon binding to a protein (BSA). 1 μM of each dye was mixed with 150 μg of BSA in 10 mM TRIS (pH 7.5) with and without 0.05% SDS. Measurements were carried out on a standard fluorometer with and without BSA being present. Ratios were then calculated for the amount of fluorescence (emission maxima) in the presence of BSA compared to its absence.

[1] = test system: 78 bp amplicon from the anti-sense C construct; assay: Amplification of nucleic acids on the Light Cycler in the presence of dye (Example 33); format: biochemical
Protocol: A target template was amplified on the Light Cycler (Roche) in the presence of various amounts of Dye 109 from Example 14. As a control, various amounts of SYBR Green (Molecular Probes, Eugene, Oreg.) were also included. The template was a 1:500 dilution of a 78 bp amplicon made in a previous reaction from the anti-sense C construct described in Liu et al. 1997 (J. Virol. 71: 4079-4085). A 2×PCR mix was made up of 20 mM Tris pH 8.3, 50 mM KCl, 4 mM MgCl2, 0.4 mM dCTP, 0.4 mM dGTP, 0.4 mM dATP, 0.8 mM dUTP, […] and […].
The Forward Primer sequence is comprised of 20 nucleotides: 5′ […] 3′ (SEQ ID NO: 1). It is an artificial sequence comprising a fusion of human Ul and HIV sequences. Bases 1-7 (CATGATC) of the first sequence are derived from plasmid pHSD-4 and comprise sequences from the human Ul gene. Bases […] (GATCCGGATGGGAGGTG) of the second sequence are derived from a region of the BAL strain of HIV containing the Tat/Rev splice acceptor site.
The Reverse Primer sequence is comprised of 22 nucleotides: 5′[…] (SEQ ID NO: 2). It is an artificial sequence comprising a fusion of human Ul and HIV sequences. Bases 1-11 (GCACATCCGGA) of the first sequence are derived from plasmid pHSD-4 and comprise sequences from the human Ul gene. Bases […] (GATCCGGATGGGAGGTG) of the second sequence are derived from a region of the BAL strain of HIV containing the Tat/Rev splice acceptor site.
The 78 bp amplicon synthesized with Forward Primer (SEQ ID NO: 1) and Reverse Primer (SEQ ID NO: 2) has the following sequence: 5′ […] 3′ (SEQ ID NO: 3). It is an artificial sequence comprising a fusion of human Ul and HIV sequences. Bases 1-11 (GCACATCCGGA) and 68-78 (TCCGGATGTGC) are derived from plasmid pHSD-4 and comprise sequences from the human Ul gene. Bases […] are derived from a region of the BAL strain of HIV containing the Tat/Rev splice acceptor site.
A master mixture was made up of: • 350 µl of 2×PCR mix described above • 14 µl of 25 mM MgCl2 • 122.5 µl of DEPC treated H2O • 14 ul of 1 u/l ung (Epicentre) • 7 µl of 10 mg/ml BSA (New England Biolabs, Beverly, Mass.) • 7 l Taq polymease (Perkin Elmer)+7 µl of TaqStart (Clontech) • 2.5 µl of target template+2.0 l of various dilutions of dyes were added to 15.5 µl of Master mixture, incubated at 45° C. for 10 minutes and then amplified by: • 1) Melting • 2 minutes @ 95° C. • 2) Cycling • a) Denaturation step: 0 seconds @ 95° C. • b) Annealing step: 5 seconds @ 69° C. for first cycle; subsequent cycles were each reduced by 0.5° C. until 65° C. was reached and all annealing steps in further cycles were carried out at this temperature • c) Extension step: 5 seconds @ 72° C. • 3) After completion of 56 cycles, all samples were maintained at 4° C. until analyzed.
After the amplification reactions were finished, the samples were analyzed by gel electrophoresis. For SYBR Green, the recommended reaction concentration is 1:10,000. As such, the amplification products shown in lanes 5 and 6 using 2 l of […] dilution in a 20 l reaction (final=1:8,000) is approximately representative of the product from the standard procedure. For Dye 109, the reactions are listed in terms of dilutions of a stock of Dye 109 with an OD reading of 200 taken at 495 nm. […] However, when lower dilutions of the dyes were added there was no inhibition of the process.

[2] = test system: 78 bp amplicon from the anti-sense C construct; assay: Amplification of nucleic acids in the presence of dye using a standard PCR machine (Example 34); format: biochemical; conditions: for amplicon synthesis (gel analysis, FIG. 2): 20 cycles
Protocol: The experiment shown in Example 33 was repeated using a standard PCR machine for synthesis to see if the effects observed in Example 33 was dependent upon the rapid heating and cooling steps used in the Light Cycler.
A master mixture was made up of: • 500 µl of 2× PCR mix described in example 33 • 20 µl of 25 mM MgCl2 • 175 µl of DEPC treated H2O • 10 ul of 1 u/l ung (Epicentre) • 10 µl of 10 mg/ml BSA (New England Biolabs, Beverly, Mass.) • 10 l Taq polymease (Perkin Elmer)+10 µl of TaqStart (Clontech) PCR conditions were 2.5 µl of target template+2.0 l of dye was added to 15.5 µl of Master mixture incubated at 45° C. for 10 minutes and then amplified using cycles of: • a) 94° C. for 30 seconds • b) 65° C. for 30 seconds • c) 72° C. for 1 minute
A duplicate set of samples was amplified with one set being taken out after 20 cycles of amplification and the second set undergoing 40 cycles. […] The other effect previously observed was also seen, i.e. non-target amplicon synthesis seen in the no Dye reaction (lane 1) was reduced with the 1:200 dilution of SYBR Green and the 1:10 dilution of Dye 109 again repeating the results of Example 33.

[3] = test system: 78 bp amplicon of the anti-sense C construct; assay: Amplification on the Light Cycler with closer series of dye dilutions, 17 cycles (Example 36); format: biochemical; conditions: a fairly broad spectrum of dye dilutions
Protocol: A series of dilutions that were closer together was carried out for both Dye 109a and Dye 122. The target template was amplified on the Light Cycler and the template was the 1:50,000 dilution of the 78 bp amplicon of the anti-sense C construct described previously.
A master mixture was made up as described previously in Example 35.
2.0 l of target template (1:50,000 dilution of the antisense C amplicon)+2.0 l of various dye concentrations were added to 16 µl of Master mix and then amplified as described previously in Example 33 and stopping after 17 amplification cycles.

anti-sense C amplicon = assay: Amplification of various amounts of target with fixed dye levels, 29 cycles (Example 37); format: biochemical
Protocol: In the previous experiments, a fixed amount of target was amplified in the presence of varying level of dyes. The eventual use of these dyes is going to be with a fixed amount of dye and varying levels of targets. As such, an experiment was carried out using previously determined optimal levels of dyes and various amounts of input target (again using the anti-sense C as a model). • Dilution 1=1:100,000 • Dilution 2=1:1,000,000 • Dilution 3=1:10,000,000 • Dilution 4=1:100,000,000 • Dilution 5=1:1,000,000,000 • Dilution 6=1:10,000,000,000
Selected amounts of target template were amplified on the Light Cycler (Roche) in the presence of various amounts of Dye 122, Dye 109a and SYBR Green.
A master mixture was made up of: • 380 l of 2×PCR mix described in Example 33 • 15.2 l of 25 mM MgCl2 • 190.0 l of DEPC treated H2O • 7.6 l of 10 mg/ml BSA (New England Biolabs, Beverly, Mass.) • 7.6 l Taq polymease (Perkin Elmer)+7.6 l of TaqStart (Clontech)
2.0 l of target template (1:50,000 dilution of the antisense C amplicon)+2.0 l of various dye concentrations were added to 16 µl of Master mixture and amplified as described previously in Example 33 stopping after 29 cycles. Dye additions were from the 1:1000 dilution of SYBR Green, 1:30 of Dye 109a and 1:30 of Dye 122.
At the highest input level (Dil 2 1:1,000,000 dilution of amplicon) no evidence of amplification is seen in the sample without dye.

[4] = test system: 78 bp amplicon of the anti-sense C construct; assay: Amplification on the Light Cycler in the presence of Dye 122 and 109a, 19 cycles (Example 35); format: biochemical
Excerpt: A target template was amplified on the Light Cycler (Roche) in the presence of various amounts of SYBR Green and Dye 122 from Example 32. In addition, a byproduct from the silica gel chromatography of Dye 109 in step (g) of Example 14 was also used. This compound is believed to have a single protonation of one of the amines of Dye 109 and as such will be termed Dye 109a. The stock of Dye 122 was OD=200 measured at 488 nm and the stock of Dye 109a was OD=200 measured at 498 nm. The template was a 1:50,000 dilution of the 78 bp amplicon of the anti-sense C construct described previously. • A master-mixture was made up of: • 350 µl of 2×PCR mix described in Example 33 • 14 l of 25 mM MgCl2 • 175.0 l of DEPC treated H2O • 7 l of 10 mg/ml BSA (New England Biolabs, Beverly, Mass.) • 7 l Taq polymease (Perkin Elmer)+7 l of TaqStart (Clontech)
2.0 l of target template+2.0 l of various dye dilutions were added to 16 µl of Master mixture, and then amplified as described previously in Example 33 except that the incubation at 45° C. for 10 minutes was eliminated since ung was not used for this series of amplifications. The amplification was stopped after 19 cycles. The results of this series of amplifications are seen in FIG. 3. […] For Dye 109a, similar features were seen where 1:10 was inhibitory (lane 18) and 1:30 was optimal (lanes 19 and 20).

Sequence of BSA (P02769 25-607): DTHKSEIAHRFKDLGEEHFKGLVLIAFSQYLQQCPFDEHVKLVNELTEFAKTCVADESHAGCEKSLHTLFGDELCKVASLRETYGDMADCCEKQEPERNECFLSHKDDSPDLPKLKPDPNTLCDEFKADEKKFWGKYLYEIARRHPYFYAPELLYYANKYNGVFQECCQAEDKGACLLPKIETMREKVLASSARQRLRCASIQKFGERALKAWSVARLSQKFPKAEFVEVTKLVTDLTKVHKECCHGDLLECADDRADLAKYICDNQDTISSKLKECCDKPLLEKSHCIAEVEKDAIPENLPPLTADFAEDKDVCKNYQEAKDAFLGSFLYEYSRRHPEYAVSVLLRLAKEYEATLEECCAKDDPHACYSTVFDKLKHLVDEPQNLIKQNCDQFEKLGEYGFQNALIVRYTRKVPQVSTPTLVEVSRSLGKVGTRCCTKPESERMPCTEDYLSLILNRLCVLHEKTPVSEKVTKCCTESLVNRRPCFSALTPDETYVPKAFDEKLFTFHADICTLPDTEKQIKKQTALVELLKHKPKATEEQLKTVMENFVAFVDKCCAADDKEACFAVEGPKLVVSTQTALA

| Fluorescence Enhancement with SDS (BSA) | Fluorescence Enhancement without SDS (BSA) | Structure (SMILES) | other results |
| --- | --- | --- | --- |
| 140 | 33 | C[n+]1c(/C=C/c2cc3c4c(c2)CCCN4CCC3)sc2cc(S(=O)(=O)N3CCCCC3)ccc21 [Dye 101] | – |
| 10 | None | CCn1c2ccccc2c2cc(/C=C/c3sc4cc(S(=O)(=O)N5CCCCC5)ccc4[n+]3CCCCS(=O)(=O)[O-])ccc21 [Dye 103] | – |
| – | – | CN(C)CCN(C)C1=C/C(=C\c2sc3cc(S(=O)(=O)N4CCCCC4)ccc3[n+]2C)c2ccccc2N1c1ccccc1 [Dye 109] | synthesis of target derived amplicons compared to the reaction without any dye ([1]; 1:25 dilution of Dye 109 stock (OD 200 at 495 nm), lanes 11 and 12): enhancement of overall synthesis of target derived amplicons; synthesis of non-target derived amplicons ([1]; 1:25 dilution of Dye 109 stock, lanes 11 and 12): elimination or suppression of the synthesis of non-target derived amplicons; detection of real time synthesis in the Light Cycler ([1]; data not shown): could be used for this purpose; amplification (gel analysis, FIG. 1) ([1]; undiluted Dye 109 stock (OD 200 at 495 nm), 56 cycles): strong inhibition of amplification; amplicon synthesis (gel analysis, FIG. 2) ([2]; 1:10 dilution of Dye 109, lanes 12 and 13): a single discrete band; amplicon synthesis (gel analysis, FIG. 2) ([2]; 1:15 dilution of Dye 109, lanes 14 and 15): lesser amounts of synthesis; amplicon synthesis (gel analysis, FIG. 2) ([2]; 1:20 and 1:25 dilutions of Dye 109, lanes 16/17 and 18/19): faint bands; non-target amplicon synthesis compared to the no Dye reaction ([2]; 40 cycles, 1:10 dilution of Dye 109): reduced |
| 33 | None | CCCCCCN(CCCCCC)c1ccc(C=Cc2sc3cc(S(=O)(=O)N(CCCCCC)CCCCCC)ccc3[n+]2C)cc1 [Dye 113] | – |
| 70 | 6 | CCCCCCN(CCCCCC)c1ccc(C=Cc2sc3cc(S(=O)(=O)N4CCCCC4)ccc3[n+]2CCCCS(=O)(=O)[O-])cc1 [Dye 114] | – |
| – | – | CN(C)CCN(C)C1=C/C(=C\c2sc3cc(S(=O)(=O)N4CCCCC4)ccc3[n+]2C)c2ccccc2N1c1ccccc1 [Dye 122] | amplification (gel analysis, FIG. 4) [3]: strong enhancement effect; amplification product (gel analysis, FIG. 5) (anti-sense C amplicon; Dil 2 (1:1,000,000) target input, 1:30 dilution of dye): strong prominent band; amplification product (gel analysis, FIG. 5) (anti-sense C amplicon; target inputs diluted 10-100× more than Dil 2, 1:30 dilution of dye): visible bands; amplification (gel analysis, FIG. 3) ([4]; 1:10 dilution of dye stock (OD=200)): inhibitory; amplification (gel analysis, FIG. 3) ([4]; 1:30 dilution of dye stock (OD=200)): the best; amplification (gel analysis, FIG. 3) ([4]; next dye dilutions (1:100 etc.)): less amplification |

| Structure (SMILES) | Fluorescence Enhancement with SDS (BSA) | Fluorescence Enhancement without SDS (BSA) | other results |
| --- | --- | --- | --- |
| CCCCCCN(CCCCCC)c1ccc(C=Cc2cc[n+](CCCP(=O)(OCC)OCC)c3ccccc23)cc1.[Br-] [Dye 115] | 78 | 100 | – |
| CCOP(=O)(CCC[n+]1ccc(C=Cc2ccc3c(c2)c2ccccc2n3CC)c2ccccc21)OCC.[Br-] [Dye 116] | None | 12 | – |
| CCCCN(CCCC)c1ccc(C=Cc2cc[n+](CCCP(=O)(OCC)OCC)c3ccccc23)cc1.[Br-] [Dye 119] | 92 | 95 | – |
